According to ChEMBL document CHEMBL3259786, “Quinazolines: new horizons in anticonvulsant therapy” (Eur J Med Chem, 2014):

Columns and labels:
[1] = Toxicity in ip dosed mouse; format: organism-based; conditions: in vivo
Mus musculus [2] = assay: Anticonvulsant activity in ip dosed mouse by MES test; format: functional
[3] = Acute toxicity in po dosed mouse; format: organism-based; conditions: in vivo
Mus musculus [4] = assay: Anticonvulsant activity in po dosed albino mouse measured after 60 mins by MES test; format: functional
Mus musculus [5] = species on record: Mus musculus; assay: Anticonvulsant activity in mouse by MES test; format: functional

SMILES | LD50 [1] [mg/kg] | Activity (Mus musculus [2]) [%] | LD50 [3] [mg/kg] | PD50 (Mus musculus [4]) [µmol/kg] | ED50 (Mus musculus [5]) [mg/kg]
c1ccc(CN(Cc2ccccc2)c2nc(N(Cc3ccccc3)Cc3ccccc3)c3ccccc3n2)cc1 | 400 | 50 |  |  | 
CCSc1nc(=O)c2ccccc2[nH]1 | 1000 | 60 |  |  | 
O=C(CNc1ccc(Cl)cc1)Nn1c(COc2ccc(Cl)cc2Cl)nc2ccccc2c1=O |  |  | > 3000 | 200.53 | 
Nc1nnc2c3ccccc3nc(-c3ccccc3Br)n12 |  |  |  |  | 27.4
